Experiments:
MCF-7 = assay: CCK-8 antiproliferative assay, MCF-7; assay type: cell-based; conditions: Homo sapiens, MCF7; CCK-8, 48 h, mean ± SD of three experiments; read-out: IC50 MCF-7
Procedure: (§1) After synthesis and characterization, the isolongifolenone bicyclocaprolactam derivatives were evaluated for their in vitro antiproliferative activity against three cancer cell lines (MCF-7, HepG2, A549) using a CCK-8 assay. […] In general, the antiproliferative activities of most of these compounds were similar, irrespective of whether electron-withdrawing or electron-donating substituents were introduced in the phenoxy ring.
(§2) Three cancer cell lines (human breast adenocarcinoma cells MCF-7, human lung adenocarcinoma epithelial cells A549, and human hepatocellular carcinoma cells HepG2) were obtained from the Cell Bank of the Chinese Academy of Sciences (Shanghai, China). LO2 human normal liver cells were also purchased from STEM RECELL (Beijing, China, STM-CL-5770). The anti-proliferation activity of compounds was tested on three cancer cell lines. The cytotoxicity of compounds as tested on normal cell line (human normal liver cells LO2). Cells were seeded at a density of 5000 cells per well in 96-well plates. Natural product piperlongumine was used as the positive control. All experiments were performed in triplicate. Three cancer cell lines were cultured in High DMEM medium or RIPM 1640 containing 10% FBS (Sijiqing, Hangzhou, China) and 1% antibiotics at 37 °C in a 5% CO2 incubator. The experimental cells were seeded in a 96-well plate at 5000 cells per well and incubated for 24 h. The old medium was replaced with experimental medium, and the cells were cultured for 48 h. Afterward, 10 µL of CCK-8 solution was added to each well, and the cells were incubated for 3 h. The absorbance at 450 nm was measured using a microplate reader.

A549 = assay: CCK-8 antiproliferative assay, A549; assay type: cell-based; conditions: Homo sapiens, A549; CCK-8, 48 h, mean ± SD of three experiments; read-out: IC50 A549
Procedure: as §1, §2

MCF-7 cells = assay: Intracellular ROS assay (DCFH-DA, flow cytometry); assay type: cell-based, human; conditions: 24 h, compared to control
Procedure: Oxidative stress is known to increase intracellular reactive oxygen species (ROS) levels and to contribute to cell apoptosis and autophagy. To investigate whether E10 induced intracellular ROS accumulation, ROS levels in MCF-7 cells were determined by flow cytometric assay using DCFH-DA as a redox-sensitive probe.
For the detection of intracellular ROS levels, MCF-7 cells were seeded at a density of 5 × 10^5 cells per well in a 12-well plate and treated with different concentrations of compound E10 for 24 h. The cells were collected and stained with 5 μM of DCFH-DA dye (Yeasen, Shanghai, China, 50101ES01) in the incubator for 30 min. Flow cytometry (BD) detected the stained cell samples, and the data were analyzed using FlowJo software.

MCF-7 xenograft = assay: Zebrafish MCF-7 xenograft model; assay type: in vivo
Text: Zebrafish have become a well-established model for both anticancer drug discovery and toxicity evaluation. This animal model affords several unique advantages, including rapid development, optical transparency, and genetic conservation with humans. These features make zebrafish particularly suitable for high-throughput in vivo screening and mechanistic studies in oncology research. Tumor burden in zebrafish xenografts is commonly quantified from Dil/DiI-labeled fluorescence area or integrated intensity, which correlates with cell number and treatment response. To assess the in vivo antitumor efficacy of compound E10, we established a zebrafish xenograft model. Briefly, CM-Dil-labeled MCF-7 cells (showing red fluorescence) were microinjected into the yolk sacs of zebrafish embryos. The xenografted zebrafish were then randomly assigned into five groups: three E10-treatment groups (0.5 µg/mL, 1.0 µg/mL, and 2.0 µg/mL), a Doxorubicin (Dox) positive control group, and a PBS negative control group.
All experimental procedures were approved by ACUC of Shandong Academy of Sciences (Animal Care and Use Committee). Wild-type AB of zebrafish were obtained from Biology Institute, Qilu University of Technology. The embryos were incubated in special embryonic medium (0.17 mM KCl, 5.0 mM NaCl, 0.4 mM CaCl2, and 0.16 mM MgSO4) at 28 °C. 48 h-old zebrafish embryos were microinjected with CM-Dil labelled MCF-7 cells under stereomicroscopy. After injection, zebrafish embryos with the same injection spot were randomly planted on a six-well plate. These xenograft zebrafish were sorted into four groups of about 15–20 zebrafish each and treated with 0.5, 1.0, 2.0 μg/mL of compound E10 for 48 h, 1.0 μM doxorubicin as a positive control group. After treatment, the fluorescence intensity of living cells was examined with laser confocal microscopy (Olympus, Tokyo, Japan).

CC1(C)C2=CC(=O)N(C(=O)C=Cc3cccc(C(F)(F)F)c3)CC(C)(C)C23CCC1C3 (centres unmarked) [E10, 5,5,9,9-Tetramethyl-3-(3-(3-(trifluoromethyl)phenyl)acryloyl)-4,5,6,7,8,9-hexahydro-5a,8-methanobenzo[d]azepin-2(3H)-one]
IC50 (MCF-7): 0.32 ± 0.05 µM | IC50 (A549): 1.39 ± 0.32 µM | intracellular ROS levels (MCF-7 cells): markedly increased | inhibition rate (decrease in fluorescence) (MCF-7 xenograft; 2.0 µg/mL E10, 48 h): 50.0% | fluorescence intensity of xenograft (MCF-7 xenograft; 48 h, compared with PBS control, Dox 1.0 μM): notable reduction in fluorescence intensity
